These results are taken from patent publication US20210292265A1, “CHALCONES AND DERIVATIVES FOR USE IN MEDICAMENTS AND NUTRACEUTICALS” (HLXTH B.V., priority 2018, published 2021).

Assay [1] relates to inflammasome induced IL-1β production. In words: IL-1β secretion (ELISA) in LPS/ATP stimulated, PMA differentiated THP-1 cells. Type of assay: cell-based. To be noted: for IC50: Homo sapiens, LPS (2 ng/ml, 4h) plus ATP (5 mM, 5 min), 1 hour pre-treatment, read-out: IC50 of inhibition of IL-1β secretion. As to the method: (§1) Evaluation of the effect of test compounds on inflammasome induced IL-1β or IL-18 generation and mTOR or caspase-1 activity was performed using PMA-differentiated THP-1 cells stimulated with LPS (2 ng/ml, 4h (LPS (sigma, cat #L3012)) plus ATP (5 mM, 5 min. (Sigma, cat #A1852)). PMA-differentiated THP-1 cells untreated with LPS/ATP were used as control. PMA (phorbol 12-myristate 13-acetate) stimulation was done by adding 150 nM PMA to the cell culture for 24 hours. followed by 24 hours of incubation in culture medium and removal of non-adherent cells.
(§2) The supernatant was collected immediately after experimental procedures for measurement of IL-1β ELISA (R&D Systems, cat #DY201) or IL-18 ELISA (R&D Systems, cat #7620) levels.
(§3) PMA-differentiated THP-1 cells, 1.5×10^5 cells/well, 96-well format
(§4) 1. Pre-treatment for 1 hour with experimental compounds. 2. LPS stimulation (2 ng/mL) for 4h of all conditions except unstimulated (LPS/ATP unstimulated) cells 3. ATP (5 mM) stimulation for 5 minutes of all conditions except unstimulated (LPS/ATP unstimulated) cells 4. Material collection: Supernatant and cell lysates (snap frozen, stored at −80° C.)
In general terms: In an ELISA, binding on a coated surface is turned into a signal by an enzyme label.

The test system of another assay is MCAO rats. The conditions noted are these: pretreatment once a day for 7 days, 2 h MCAO, 22 h reperfusion; cited from earlier work.
A further assay addresses T1, mTOR (Homo sapiens, UniProt P42345).
T1 construct: PMA-differentiated THP-1 cells, 1.5×10^5 cells/well, 96-well format; endogenous in cells; host or cells: PMA-differentiated THP-1 cells
Briefly: mTOR activity by phospho p70 S6K (Thr389) ELISA in PMA differentiated THP-1 cells. In kind it is cell-based. The conditions noted are these: LPS/ATP stimulated and PMA differentiated THP-1 cells; read-out: IC50 of mTOR inhibition (phospho p70 S6K). As to the method: as §1
(§5) The cell lysates were collected accordingly the manufacturer's instructions for analysis of phospho p70 S6K (Thr389) (eBioscience, cat #85-86052) levels by ELISA, to determine the mTOR activity or to determine caspase-1 (R&D Systems cat #AF6215) levels by Western blot. As secondary antibody for the Western blot a HRP-conjugated anti-IG antibody (R&D Systems cat #HAF017) was used and immunoreactive bands were visualized by the Enhanced Chemiluminescence method (Thermo Scientific, Rockford, Ill.). All assays were performed accordingly to the respective manufacturers instructions.
as §3
1. Pre-treatment for 1 hour with experimental compounds. 2. LPS stimulation (2 ng/mL) for 4h of all conditions except unstimulated (LPS/ATP unstimulated) cells 3. […]

In assay [2] the test system is 1K/DOCA/salt-treated mice. To be noted: cited from earlier work.
For assay [3], the system named is inflammasome induced caspase-1 production. Briefly: Caspase-1 levels by Western blot in LPS/ATP stimulated, PMA differentiated THP-1 cells. Type of assay: cell-based. The protocol: as §1, §5
1. Pre-treatment for 1 hour with experimental compounds. 2. […]
LPS/ATP stimulated, PMA differentiated THP-1 cells were incubated with a compound of formula I and caspase-I formation was analyzed and compared to a control without the compound.
For orientation: Immunoblotting shows a protein as a band on a membrane.

The test system of assay [4] is inflammasome induced IL-18 production. In words: IL-18 secretion (ELISA) in LPS/ATP stimulated, PMA differentiated THP-1 cells. Type of assay: cell-based. The conditions noted are these: dose dependent. As to the method: as §1, §2, §3, §4
Assay [5] deals with myocardial ischemia reperfusion injury (MI/RI) rats. The conditions noted are these: I/R rats, 2.5, 5 and 10 mg/kg, 30 min occlusion, 2 h reperfusion; cited from earlier work.

As for `CO[C@H]1C[C@@H]2CC[C@@H](C)[C@@](O)(O2)C(=O)C(=O)N2CCCC[C@H]2C(=O)O[C@H]([C@H](C)C[C@@H]2CC[C@@H](O)[C@H](OC)C2)CC(=O)[C@H](C)/C=C(\C)[C@@H](O)[C@@H](OC)C(=O)[C@H](C)C[C@H](C)/C=C/C=C/C=C/1C` [Rapamycin], the “effect on production of IL-1β” value in assay [1] (LPS/ATP stimulated, Rapamycin 25, 50 and 100 nM) was “no effect”.

The IC50 is the point on the concentration scale where inhibition reaches its midpoint. As to `O=C(/C=C/c1ccc(O)cc1)c1ccc(O)cc1O` [Isoliquiritigenin], the “cerebral infarct volume and edema” value in the assay with MCAO rats is on record as “significantly reduced”. Also, the IC50 was determined as 11.9 µM in assay [1] and 174 µM on mTOR.

As to `CC(C)(O)c1coc(S(=O)(=O)NC(=O)Nc2c3c(cc4c2CCC4)CCC3)c1` [MCC950], in assay [2], the effect on hypertension result is “reversed hypertension”.

Regarding `O=C(/C=C/c1ccccc1O)c1ccc(O)cc1O` [2,2′,4′-trihydroxychalcone], the “effect on caspase-1 production” value in assay [3] is listed as “inhibits caspase-1 production”. Further, the half-maximal inhibitory concentration (IC50) was 6.1 µM in assay [1] and 98.8 µM at mTOR. The “effect on secretion of IL-18” value in assay [4] is reported as “inhibits the secretion of IL-18”.

For the molecule `Oc1ccc(/C=C/c2cc(O)cc(O)c2)cc1` [Resveratrol, resveratrol], the “infarct volume and myocardial fibrosis” value in assay [5] is on record as “significantly reduced”. In addition, the IC50 in assay [1] was 87.3 µM.
